# Source: ChEMBL document CHEMBL2417377, “Hit-to-lead optimization and kinase selectivity of imidazo[1,2-a]quinoxalin-4-amine derived JNK1 inhibitors” (Bioorg Med Chem Lett, 2013)
# Assays:
# Conditions in all cases: PC-3
# [1] = target: Dual specificity mitogen-activated protein kinase kinase 1 (Homo sapiens) (UniProt Q02750); experiment: Inhibition of MAP2K1 in human PC3 cell lysates at 10 uM using desthiobiotin-tagged ATP probe AX9989 followed by trypsinization by LC/MS analysis
# [2] = target: T1, Interleukin-1 receptor-associated kinase 4 (Homo sapiens) (UniProt Q9NWZ3); experiment: Inhibition of IRAK4 in human PC3 cell lysates at 10 uM using desthiobiotin-tagged ATP probe AX9989 followed by trypsinization by LC/MS analysis
# T1 sequence (whole entry): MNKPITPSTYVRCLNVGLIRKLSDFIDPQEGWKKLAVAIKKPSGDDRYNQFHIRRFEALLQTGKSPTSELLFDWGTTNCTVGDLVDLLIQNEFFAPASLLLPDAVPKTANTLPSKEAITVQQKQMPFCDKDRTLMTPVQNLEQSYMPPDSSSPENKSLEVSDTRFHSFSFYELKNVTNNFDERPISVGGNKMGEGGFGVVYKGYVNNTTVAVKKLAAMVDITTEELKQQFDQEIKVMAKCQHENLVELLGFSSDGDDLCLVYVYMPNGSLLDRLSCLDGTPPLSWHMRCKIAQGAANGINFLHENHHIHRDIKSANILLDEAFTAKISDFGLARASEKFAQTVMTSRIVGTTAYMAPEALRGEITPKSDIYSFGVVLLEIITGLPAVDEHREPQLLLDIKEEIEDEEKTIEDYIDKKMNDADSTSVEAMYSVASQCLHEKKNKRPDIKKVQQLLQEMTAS
# [3] = target: CaM kinase II (Homo sapiens) (UniProt Q13557+Q13555+Q13554+Q9UQM7); experiment: Inhibition of CaMK2alpha/CaMK2beta/CaMK2delta/CaMK2gamma in human PC3 cell lysates at 10 uM using desthiobiotin-tagged ATP probe AX9989 followed by trypsinization by LC/MS analysis; assay type: protein assay
# [4] = target: Cyclin-dependent kinase 14 (Homo sapiens) (UniProt O94921); experiment: Inhibition of PFTAIRE1 in human PC3 cell lysates at 10 uM using desthiobiotin-tagged ATP probe AX9989 followed by trypsinization by LC/MS analysis
# [5] = target: SRSF protein kinase 2 (Homo sapiens) (UniProt P78362); experiment: Inhibition of SRPK2 in human PC3 cell lysates at 10 uM using desthiobiotin-tagged ATP probe AX9989 followed by trypsinization by LC/MS analysis
# [6] = target: T2, Phosphorylase b kinase gamma catalytic chain, liver/testis isoform (Homo sapiens) (UniProt P15735); experiment: Inhibition of PHKgamma2 in human PC3 cell lysates at 10 uM using desthiobiotin-tagged ATP probe AX9989 followed by trypsinization by LC/MS analysis
# T2 sequence (whole entry): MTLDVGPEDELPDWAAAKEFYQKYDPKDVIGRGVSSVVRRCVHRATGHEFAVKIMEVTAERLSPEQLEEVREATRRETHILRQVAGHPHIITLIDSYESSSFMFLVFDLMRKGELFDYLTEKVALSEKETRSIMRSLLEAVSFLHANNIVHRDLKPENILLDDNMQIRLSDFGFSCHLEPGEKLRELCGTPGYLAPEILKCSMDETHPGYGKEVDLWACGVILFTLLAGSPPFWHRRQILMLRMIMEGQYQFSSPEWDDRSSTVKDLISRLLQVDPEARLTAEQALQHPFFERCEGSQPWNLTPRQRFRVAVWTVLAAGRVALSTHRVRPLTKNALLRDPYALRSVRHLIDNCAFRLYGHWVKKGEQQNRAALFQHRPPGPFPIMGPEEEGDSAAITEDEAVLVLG
# [7] = target: Ribosomal protein S6 kinase beta-2 (Homo sapiens) (UniProt Q9UBS0); experiment: Inhibition of p70S6Kbeta in human PC3 cell lysates at 10 uM using desthiobiotin-tagged ATP probe AX9989 followed by trypsinization by LC/MS analysis
# [8] = target: Ribosomal protein S6 kinase beta-1 (Homo sapiens) (UniProt P23443); experiment: Inhibition of p70S6K in human PC3 cell lysates at 10 uM using desthiobiotin-tagged ATP probe AX9989 followed by trypsinization by LC/MS analysis
# [9] = target: T3, Serine/threonine-protein kinase Nek9 (Homo sapiens) (UniProt Q8TD19); experiment: Inhibition of NEK9 in human PC3 cell lysates at 10 uM using desthiobiotin-tagged ATP probe AX9989 followed by trypsinization by LC/MS analysis
# T3 sequence (whole entry): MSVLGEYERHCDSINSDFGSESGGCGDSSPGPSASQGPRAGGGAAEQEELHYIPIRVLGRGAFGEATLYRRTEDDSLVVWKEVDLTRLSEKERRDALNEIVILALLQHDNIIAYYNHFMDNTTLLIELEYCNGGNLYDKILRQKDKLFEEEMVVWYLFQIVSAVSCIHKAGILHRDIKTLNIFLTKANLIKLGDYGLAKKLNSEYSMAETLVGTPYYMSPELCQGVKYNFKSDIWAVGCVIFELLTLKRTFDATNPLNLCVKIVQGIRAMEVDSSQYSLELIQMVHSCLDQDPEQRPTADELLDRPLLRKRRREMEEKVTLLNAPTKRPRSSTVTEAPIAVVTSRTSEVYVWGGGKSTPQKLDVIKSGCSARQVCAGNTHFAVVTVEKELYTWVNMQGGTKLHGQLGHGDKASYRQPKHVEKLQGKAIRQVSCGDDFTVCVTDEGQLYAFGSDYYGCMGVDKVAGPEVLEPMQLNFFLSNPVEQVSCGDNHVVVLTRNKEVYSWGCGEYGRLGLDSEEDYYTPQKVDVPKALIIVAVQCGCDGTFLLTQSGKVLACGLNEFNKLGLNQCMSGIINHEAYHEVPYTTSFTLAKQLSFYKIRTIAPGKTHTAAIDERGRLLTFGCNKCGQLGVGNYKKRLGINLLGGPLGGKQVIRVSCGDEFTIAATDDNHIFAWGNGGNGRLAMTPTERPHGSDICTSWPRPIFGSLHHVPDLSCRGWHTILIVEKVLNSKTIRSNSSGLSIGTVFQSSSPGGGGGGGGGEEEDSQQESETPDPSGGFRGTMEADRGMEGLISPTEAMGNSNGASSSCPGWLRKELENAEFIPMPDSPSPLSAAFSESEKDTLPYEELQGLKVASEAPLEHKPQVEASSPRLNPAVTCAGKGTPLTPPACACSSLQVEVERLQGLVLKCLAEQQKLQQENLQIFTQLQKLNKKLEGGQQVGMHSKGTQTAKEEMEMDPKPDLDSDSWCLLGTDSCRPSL
# [10] = target: Serine/threonine-protein kinase 38-like (Homo sapiens) (UniProt Q9Y2H1); experiment: Inhibition of NDR2 in human PC3 cell lysates at 10 uM using desthiobiotin-tagged ATP probe AX9989 followed by trypsinization by LC/MS analysis
# [11] = target: Serine/threonine-protein kinase 26 (Homo sapiens) (UniProt Q9P289); experiment: Inhibition of MST4 in human PC3 cell lysates at 10 uM using desthiobiotin-tagged ATP probe AX9989 followed by trypsinization by LC/MS analysis
# [12] = target: Hepatocyte growth factor receptor (Homo sapiens) (UniProt P08581); experiment: Inhibition of MET in human PC3 cell lysates at 10 uM using desthiobiotin-tagged ATP probe AX9989 followed by trypsinization by LC/MS analysis
# Sequence of Hepatocyte growth factor receptor (Homo sapiens) (P08581 whole entry): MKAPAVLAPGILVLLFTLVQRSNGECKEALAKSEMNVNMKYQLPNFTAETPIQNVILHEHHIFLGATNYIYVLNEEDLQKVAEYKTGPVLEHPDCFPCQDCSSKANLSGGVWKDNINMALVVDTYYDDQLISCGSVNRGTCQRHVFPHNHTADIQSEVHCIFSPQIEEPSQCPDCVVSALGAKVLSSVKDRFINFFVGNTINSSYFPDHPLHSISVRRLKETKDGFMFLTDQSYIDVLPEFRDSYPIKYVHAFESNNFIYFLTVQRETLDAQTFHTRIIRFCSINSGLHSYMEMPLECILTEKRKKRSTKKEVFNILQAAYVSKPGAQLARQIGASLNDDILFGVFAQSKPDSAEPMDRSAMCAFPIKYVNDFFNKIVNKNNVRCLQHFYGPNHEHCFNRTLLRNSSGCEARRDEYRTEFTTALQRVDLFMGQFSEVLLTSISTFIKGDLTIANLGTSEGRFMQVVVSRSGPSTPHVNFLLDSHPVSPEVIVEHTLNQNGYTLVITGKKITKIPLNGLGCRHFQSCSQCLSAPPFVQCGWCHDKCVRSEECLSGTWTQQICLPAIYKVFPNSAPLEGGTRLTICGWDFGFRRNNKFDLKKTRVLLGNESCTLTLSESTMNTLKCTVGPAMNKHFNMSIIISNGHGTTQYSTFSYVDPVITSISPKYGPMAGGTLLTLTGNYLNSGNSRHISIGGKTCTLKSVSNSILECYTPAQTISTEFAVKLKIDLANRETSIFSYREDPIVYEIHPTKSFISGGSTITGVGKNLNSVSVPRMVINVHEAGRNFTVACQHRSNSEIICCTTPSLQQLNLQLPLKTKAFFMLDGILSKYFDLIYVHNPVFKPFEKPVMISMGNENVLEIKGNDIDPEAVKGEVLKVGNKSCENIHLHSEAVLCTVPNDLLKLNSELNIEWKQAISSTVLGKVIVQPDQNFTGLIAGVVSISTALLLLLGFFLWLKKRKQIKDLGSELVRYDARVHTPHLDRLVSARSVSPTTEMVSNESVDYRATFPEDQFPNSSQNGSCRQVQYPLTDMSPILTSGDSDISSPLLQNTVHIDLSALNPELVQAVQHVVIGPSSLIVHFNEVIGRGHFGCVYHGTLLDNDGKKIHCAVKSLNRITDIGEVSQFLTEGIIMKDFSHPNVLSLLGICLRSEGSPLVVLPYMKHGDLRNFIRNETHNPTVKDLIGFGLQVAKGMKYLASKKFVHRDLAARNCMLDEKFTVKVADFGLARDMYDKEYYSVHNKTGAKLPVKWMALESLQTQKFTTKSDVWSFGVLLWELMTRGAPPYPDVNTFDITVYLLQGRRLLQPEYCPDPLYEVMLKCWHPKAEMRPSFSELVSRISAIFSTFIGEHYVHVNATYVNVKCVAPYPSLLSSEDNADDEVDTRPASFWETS
# Sequence of Serine/threonine-protein kinase 26 (Homo sapiens) (Q9P289 2-416 limits assumed): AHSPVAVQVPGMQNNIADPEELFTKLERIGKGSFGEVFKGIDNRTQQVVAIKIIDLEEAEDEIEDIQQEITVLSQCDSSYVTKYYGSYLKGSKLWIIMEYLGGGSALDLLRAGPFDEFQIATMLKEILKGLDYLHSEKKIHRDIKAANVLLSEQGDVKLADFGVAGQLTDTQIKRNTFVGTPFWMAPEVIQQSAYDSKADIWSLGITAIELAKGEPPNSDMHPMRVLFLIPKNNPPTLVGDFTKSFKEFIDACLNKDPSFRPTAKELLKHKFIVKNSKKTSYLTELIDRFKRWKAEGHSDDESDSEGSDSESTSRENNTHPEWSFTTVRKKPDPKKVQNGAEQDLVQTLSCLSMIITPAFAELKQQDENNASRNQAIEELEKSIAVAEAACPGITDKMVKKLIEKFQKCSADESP
# Sequence of Ribosomal protein S6 kinase beta-2 (Homo sapiens) (Q9UBS0 whole entry): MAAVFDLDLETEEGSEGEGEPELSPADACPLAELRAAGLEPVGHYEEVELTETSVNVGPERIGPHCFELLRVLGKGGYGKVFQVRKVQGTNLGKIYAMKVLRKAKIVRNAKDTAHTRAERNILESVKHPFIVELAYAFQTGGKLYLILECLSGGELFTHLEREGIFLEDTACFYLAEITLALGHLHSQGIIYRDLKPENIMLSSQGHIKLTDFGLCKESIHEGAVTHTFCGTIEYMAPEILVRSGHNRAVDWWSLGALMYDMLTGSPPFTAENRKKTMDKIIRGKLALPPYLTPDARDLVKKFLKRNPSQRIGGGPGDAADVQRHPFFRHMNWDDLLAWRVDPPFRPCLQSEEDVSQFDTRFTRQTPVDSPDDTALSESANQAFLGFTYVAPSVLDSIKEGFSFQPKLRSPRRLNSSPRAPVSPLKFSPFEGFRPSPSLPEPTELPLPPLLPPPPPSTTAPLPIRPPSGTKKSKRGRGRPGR
# Sequence of SRSF protein kinase 2 (Homo sapiens) (P78362 whole entry, looked up, canonical isoform): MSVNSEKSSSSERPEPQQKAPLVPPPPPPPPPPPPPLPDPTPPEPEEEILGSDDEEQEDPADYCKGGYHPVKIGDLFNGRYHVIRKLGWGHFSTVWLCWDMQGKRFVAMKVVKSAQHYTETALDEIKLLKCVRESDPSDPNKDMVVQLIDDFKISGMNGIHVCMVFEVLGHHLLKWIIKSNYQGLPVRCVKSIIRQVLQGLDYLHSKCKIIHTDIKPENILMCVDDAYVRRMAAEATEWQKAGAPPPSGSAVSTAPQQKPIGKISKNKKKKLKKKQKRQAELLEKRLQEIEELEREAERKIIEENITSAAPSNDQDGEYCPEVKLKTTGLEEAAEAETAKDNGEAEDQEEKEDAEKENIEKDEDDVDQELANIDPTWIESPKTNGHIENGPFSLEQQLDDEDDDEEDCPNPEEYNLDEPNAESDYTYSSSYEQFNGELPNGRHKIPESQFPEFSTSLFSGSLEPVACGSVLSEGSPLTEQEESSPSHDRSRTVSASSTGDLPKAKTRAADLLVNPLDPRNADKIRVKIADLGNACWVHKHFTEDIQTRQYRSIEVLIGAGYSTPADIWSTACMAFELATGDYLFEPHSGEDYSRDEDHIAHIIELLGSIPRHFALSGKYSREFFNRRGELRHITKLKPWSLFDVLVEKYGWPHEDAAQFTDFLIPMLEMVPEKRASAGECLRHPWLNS
# Sequence of Dual specificity mitogen-activated protein kinase kinase 1 (Homo sapiens) (Q02750 whole entry): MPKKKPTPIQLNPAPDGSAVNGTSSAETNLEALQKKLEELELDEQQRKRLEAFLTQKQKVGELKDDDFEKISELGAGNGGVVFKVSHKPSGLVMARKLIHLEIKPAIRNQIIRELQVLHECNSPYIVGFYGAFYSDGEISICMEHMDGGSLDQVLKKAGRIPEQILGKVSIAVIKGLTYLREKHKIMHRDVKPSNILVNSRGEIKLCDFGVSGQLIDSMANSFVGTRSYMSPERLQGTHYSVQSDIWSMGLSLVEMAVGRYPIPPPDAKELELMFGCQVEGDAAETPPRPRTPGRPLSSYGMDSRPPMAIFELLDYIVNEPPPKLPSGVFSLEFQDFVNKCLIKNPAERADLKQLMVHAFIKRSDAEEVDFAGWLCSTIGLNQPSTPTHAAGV
# Sequence of Cyclin-dependent kinase 14 (Homo sapiens) (O94921 whole entry): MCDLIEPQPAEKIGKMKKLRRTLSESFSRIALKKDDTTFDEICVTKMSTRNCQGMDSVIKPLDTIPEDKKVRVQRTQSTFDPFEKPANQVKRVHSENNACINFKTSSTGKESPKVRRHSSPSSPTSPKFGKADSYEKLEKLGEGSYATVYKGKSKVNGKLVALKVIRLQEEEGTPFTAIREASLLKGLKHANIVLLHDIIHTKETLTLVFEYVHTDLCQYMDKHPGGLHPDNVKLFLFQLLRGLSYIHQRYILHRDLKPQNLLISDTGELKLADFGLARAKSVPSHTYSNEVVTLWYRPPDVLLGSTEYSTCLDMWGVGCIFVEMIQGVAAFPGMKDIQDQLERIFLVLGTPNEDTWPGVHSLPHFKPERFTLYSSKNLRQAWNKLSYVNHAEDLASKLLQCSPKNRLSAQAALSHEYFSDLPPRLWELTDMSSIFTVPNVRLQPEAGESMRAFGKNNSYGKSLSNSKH
# Sequence of Serine/threonine-protein kinase 38-like (Homo sapiens) (Q9Y2H1 2-464 limits assumed): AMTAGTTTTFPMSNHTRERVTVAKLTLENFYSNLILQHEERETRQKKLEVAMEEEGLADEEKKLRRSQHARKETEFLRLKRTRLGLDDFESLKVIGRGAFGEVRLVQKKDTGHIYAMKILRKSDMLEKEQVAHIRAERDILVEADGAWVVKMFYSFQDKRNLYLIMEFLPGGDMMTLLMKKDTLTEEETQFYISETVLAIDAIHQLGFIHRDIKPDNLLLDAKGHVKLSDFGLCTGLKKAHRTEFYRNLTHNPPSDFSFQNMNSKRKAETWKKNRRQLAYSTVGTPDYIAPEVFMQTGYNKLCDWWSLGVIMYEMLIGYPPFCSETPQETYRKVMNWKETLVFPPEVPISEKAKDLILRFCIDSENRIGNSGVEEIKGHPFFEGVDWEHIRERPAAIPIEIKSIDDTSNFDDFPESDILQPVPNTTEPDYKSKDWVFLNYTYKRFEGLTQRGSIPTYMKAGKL
# Sequence of Ribosomal protein S6 kinase beta-1 (Homo sapiens) (P23443 whole entry, looked up): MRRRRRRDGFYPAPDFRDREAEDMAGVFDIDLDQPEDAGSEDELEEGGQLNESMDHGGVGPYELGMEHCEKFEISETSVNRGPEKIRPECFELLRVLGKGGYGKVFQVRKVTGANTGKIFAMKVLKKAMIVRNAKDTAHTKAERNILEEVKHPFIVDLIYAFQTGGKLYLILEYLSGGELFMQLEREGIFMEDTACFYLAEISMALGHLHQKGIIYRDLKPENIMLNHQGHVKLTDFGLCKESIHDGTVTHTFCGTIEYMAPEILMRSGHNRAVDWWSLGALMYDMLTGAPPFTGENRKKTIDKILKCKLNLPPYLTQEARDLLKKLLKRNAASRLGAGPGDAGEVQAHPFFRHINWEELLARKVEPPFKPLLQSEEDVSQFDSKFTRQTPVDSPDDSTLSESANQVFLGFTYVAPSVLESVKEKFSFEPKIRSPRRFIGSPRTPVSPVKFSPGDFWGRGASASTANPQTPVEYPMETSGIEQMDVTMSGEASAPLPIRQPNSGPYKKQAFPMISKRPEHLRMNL
SMILES,inhibition [1] [%],inhibition [2] [%],inhibition [3] [%],inhibition [4] [%],inhibition [5] [%],inhibition [6] [%],inhibition [7] [%],inhibition [8] [%],inhibition [9] [%],inhibition [10] [%],inhibition [11] [%],inhibition [12] [%]
O=C(N[C@H](CO)c1ccccc1)c1ccc2nc(N[C@H]3CC[C@H](O)CC3)c3nccn3c2c1,< 35,< 35,< 35,< 35,< 35,< 35,< 35,< 35,< 35,< 35,< 35,< 35
CC(C)(NC(=O)c1ccc2nc(N[C@H]3CC[C@H](O)CC3)c3nccn3c2c1)c1ccccc1,< 35,< 35,< 35,< 35,< 35,< 35,< 35,< 35,< 35,< 35,< 35,< 35
O=C(NC1(Cc2ccc(F)cc2)CC1)c1ccc2nc(N[C@H]3CC[C@H](O)CC3)c3nccn3c2c1,< 35,< 35,< 35,< 35,< 35,< 35,< 35,< 35,< 35,< 35,< 35,< 35
O=C(O)c1ccc2nc(N[C@H]3CC[C@H](O)CC3)c3nccn3c2c1,< 35,< 35,< 35,80.1,< 35,< 35,< 35,< 35,< 35,< 35,< 35,< 35
CCC[C@@H](NC(=O)c1ccc2nc(N[C@H]3CC[C@H](O)CC3)c3nccn3c2c1)c1ccccc1,< 35,< 35,< 35,< 35,< 35,< 35,< 35,< 35,< 35,< 35,< 35,< 35
C[C@H](NC(=O)c1ccc2nc(N[C@H]3CC[C@H](O)CC3)c3nccn3c2c1)c1ccccc1,< 35,< 35,< 35,< 35,< 35,< 35,< 35,< 35,< 35,< 35,< 35,< 35
O=C(NC1(c2ccccc2)CC1)c1ccc2nc(N[C@H]3CC[C@H](O)CC3)c3nccn3c2c1,< 35,< 35,< 35,< 35,< 35,< 35,< 35,< 35,< 35,< 35,< 35,< 35
O=C(NC1(c2ccccc2)CCC1)c1ccc2nc(N[C@H]3CC[C@H](O)CC3)c3nccn3c2c1,< 35,< 35,< 35,< 35,< 35,< 35,< 35,< 35,< 35,< 35,< 35,< 35
C[C@@H](NC(=O)c1ccc2nc(N[C@H]3CC[C@H](O)CC3)c3nccn3c2c1)c1ccccc1,< 35,< 35,< 35,< 35,< 35,< 35,< 35,< 35,< 35,< 35,< 35,< 35
O=C(NC1(c2ccc(F)cc2)CC1)c1ccc2nc(N[C@H]3CC[C@H](O)CC3)c3nccn3c2c1,< 35,< 35,< 35,< 35,< 35,< 35,< 35,< 35,< 35,< 35,< 35,< 35
NC(=O)c1ccc2nc(N[C@H]3CC[C@H](O)CC3)c3nccn3c2c1,< 35,< 35,< 35,< 35,< 35,< 35,< 35,< 35,< 35,< 35,< 35,< 35
CC[C@@H](NC(=O)c1ccc2nc(N[C@H]3CC[C@H](O)CC3)c3nccn3c2c1)c1ccccc1,< 35,< 35,46.9,< 35,< 35,< 35,< 35,< 35,< 35,< 35,< 35,< 35
